Results on 1 compound are retold here after BindingDB's records for PubMed 9655904 (Parke-Davis Pharmaceutical Research, 1998).

The target in this test is Fibroblast growth factor receptor 1 (Homo sapiens, UniProt P11362).
Fibroblast growth factor receptor 1, sequence (P11362 whole entry): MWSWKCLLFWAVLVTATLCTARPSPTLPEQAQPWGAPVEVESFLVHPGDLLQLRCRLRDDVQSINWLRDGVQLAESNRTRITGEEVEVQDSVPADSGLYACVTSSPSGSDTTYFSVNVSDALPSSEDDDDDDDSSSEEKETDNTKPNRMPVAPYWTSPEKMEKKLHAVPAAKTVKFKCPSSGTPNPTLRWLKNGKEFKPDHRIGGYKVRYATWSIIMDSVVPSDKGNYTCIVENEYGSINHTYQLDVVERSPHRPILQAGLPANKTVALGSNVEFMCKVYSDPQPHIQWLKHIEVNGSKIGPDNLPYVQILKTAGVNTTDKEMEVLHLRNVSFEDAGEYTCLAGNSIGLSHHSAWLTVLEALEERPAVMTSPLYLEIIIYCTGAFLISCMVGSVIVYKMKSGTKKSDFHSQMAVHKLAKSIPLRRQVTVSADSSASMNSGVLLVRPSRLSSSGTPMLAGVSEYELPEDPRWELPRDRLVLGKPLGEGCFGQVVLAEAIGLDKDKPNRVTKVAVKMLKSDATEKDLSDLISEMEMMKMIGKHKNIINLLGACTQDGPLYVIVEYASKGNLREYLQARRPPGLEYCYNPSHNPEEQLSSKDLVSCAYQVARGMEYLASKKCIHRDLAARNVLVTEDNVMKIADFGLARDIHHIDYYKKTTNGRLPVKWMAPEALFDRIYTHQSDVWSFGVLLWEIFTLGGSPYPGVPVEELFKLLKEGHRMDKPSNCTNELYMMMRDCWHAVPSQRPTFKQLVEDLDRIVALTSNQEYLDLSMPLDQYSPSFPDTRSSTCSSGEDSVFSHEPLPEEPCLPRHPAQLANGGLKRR

A word on the Ki: it is the dissociation constant of the complex between target and ligand, obtained from inhibition or displacement. Low values mean higher affinity, high ones lower affinity. Consider `COc1cc(OC)cc(-c2cc3cnc(N)nc3nc2NC(=O)NC(C)(C)C)c1` [6-arylpyrido[2,3-d]pyrimidine deriv. 25], for which the Ki was 45.2 nM.
